Measurements: patent US20140322278A1, “Modulation of Tissue Transglutaminase Activation in Disease” (The Board of Trustees of the Leland Stanford Junior …, priority 2011, published 2014)

B1: recombinant human Trx: reduced human thioredoxin, overexpressed in and purified from recombinant E. coli (protein, UniProt P10599 2-105, looked up)
Thioredoxin: VKQIESKTAFQEALDAAGDKLVVVDFSATWCGPCKMIKPFFHSLSEKYSNVIFLEVDVDDCQDVASECEVKCMPTFQFFKKGQKVGEFSGANKEKLEATINELV
modifications: reduced
notes: reduced human thioredoxin, overexpressed in and purified from recombinant E. coli

What was measured:
human thioredoxin = molecular target: T1, human thioredoxin (Homo sapiens, UniProt P10599); test: Inhibition of human thioredoxin by disulfide analogs of PX-12 (kinh/Ki); format: biochemical
T1 construct: made in house; host or cells: E. coli
T1 sequence (P10599 1-105): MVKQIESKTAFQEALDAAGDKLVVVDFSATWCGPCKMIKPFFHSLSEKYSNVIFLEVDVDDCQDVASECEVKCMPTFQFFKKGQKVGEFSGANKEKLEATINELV

[1] = Reactivity of disulfide inhibitors towards dithiothreitol
[2] = tested on: TG2 activation in T84 monolayers; test: Thioredoxin-induced TG2 activation in T84 monolayers, 5BP incorporation ELISA; format: cell-based, human
Method: (§1) FIG. 7. Dose dependence of TG2 activation in response to recombinant human thioredoxin treatments of T84 and WI-38 monolayers measured in a quantitative enzyme linked immunosorbent type assay. Cellular monolayers were treated for 3 hrs at 0-10 μM thioredoxin with or without TG2 inhibition using 25 μM ERW1041E or with or without using 0-50 μM thioredoxin inhibitor PX-12. TG2 activation was quantified by the amount of 5BP crosslinked to native proteins in the extracellular matrix of cultured monolayers as measured by tetramethylbenzidine turnover via streptavidin-HRP labeling. (A) and (B) Illustrate the dependence of 5BP incorporation on thioredoxin exposure concentration in T84 and WI-38 cells, respectively. […] (C) and (D) Illustrate the dependence of 5BP incorporation on the ability of thioredoxin to activate TG2. TG2 activation was highest for control experiments with 0 μM PX-12. The amount of PX-12 required to reduce the 5BP incorporation in half at saturating concentrations of 3 μM thioredoxin in T84 and WI-38 cultures was 11 μM and 5 μM PX-12, respectively. […] Data reported as mean+/−standard deviation.
(§2) To test whether recombinant human thioredoxin could directly activate TG2 in cell culture, we used T84 and WI-38 monolayers in similar assays as described herein. T84 and WI-38 cells were grown into mature monolayers at which point varying amounts of pre-reduced thioredoxin were added to the culture medium along with 5BP and/or small molecule inhibitors, such as the TG2 inhibitor, ERW1041E, or the thioredoxin inhibitor, PX-12. 5BP incorporated into the extracellular matrix of cultured monolayers via activated TG2 was then quantified.

[3] = tested on: TG2 activation in WI-38 monolayers; test: Thioredoxin-induced TG2 activation in WI-38 monolayers, 5BP incorporation ELISA; format: cell-based, human
Method: as §1, §2

Trx = molecular target: T2, Trx (Homo sapiens, UniProt P10599); test: Cell-free assay for Trx-mediated activation of oxidized TG2; format: biochemical; conditions: dose-dependent; 100 μM PX-12
T2 construct: made in house; host or cells: E. coli (Trx)
T2 sequence (P10599 1-105): T1 sequence (P10599 1-105)
Method: (§3) To test our hypothesis, we measured the kinetics of Trx-mediated activation of oxidized TG2. Reduced forms of Trx from E. coli and human were prepared by overexpression in and purification from recombinant E. coli. Dithiothreitol (DTT) was used as a reference small molecule reducing agent. […] We therefore quantified the specificity of human Trx for human oxidized TG2 by measuring the Michaelis-Menten parameters for Trx-mediated reduction of oxidized TG2. Insulin, a well-characterized extracellular substrate of Trx, was used as a reference, and human thioredoxin reductase was used as a catalyst to achieve turnover under steady-state conditions. […] Based on these parameters, one can estimate that as little as 2.5 nM Trx in the extracellular matrix should be able to activate 10% of the local oxidized TG2 within 30 min.
The small molecule PX-12 (1,1-methylpropyl 2-imidazolyl disulfide) inhibits Trx by oxidizing its active site Cys.

[4] = cited from earlier work
Insulin = test: Kinetics of Trx-mediated reduction of insulin (reference substrate); format: biochemical; conditions: human thioredoxin reductase as catalyst, steady state
Method: as §3

[5] = Homo sapiens, saturating 3 μM thioredoxin, read-out: amount of PX-12 required to reduce the 5BP incorporation in half

Molecule | Trx kinh/Ki (human thioredoxin; human thioredoxin, bimolecular parameter estimating potency) [M⁻¹ s⁻¹] | Trx/DTT (human thioredoxin; ratio of reactivity towards Trx relative to DTT (selectivity)) | DTT k [1] [M⁻¹ s⁻¹] | IC50 [2, 5] [µM] | 5BP incorporation in response to thioredoxin ([2]; PX-12 0-50 μM) | IC50 [3, 5] [µM] | 5BP incorporation in response to thioredoxin ([3]; PX-12 0-50 μM) | Trx-mediated activation of oxidized TG2 (Trx) | adverse effects in humans ([4]; high doses administered to humans) | toxicity due to the 2-butanethiol leaving group ([4]; previous human clinical studies) | Km (Insulin) [µM]
CCC(C)SSc1ncc[nH]1 (centres unmarked) [compound 1, 1-methylpropyl 2-imidazolyl disulfide] | 2670 | 15 | 180 | 11 | quantitatively reduced | 5 | quantitatively reduced | complete inactivation | without any serious adverse effects | dose-limiting toxicity | –
B1 | – | – | – | – | – | – | – | – | – | – | 30
